Reference: ChEMBL document CHEMBL6109084 (Eur J Med Chem, 2025)
In brackets after ≈: the same amount, converted by molar mass.

Columns and labels:
Coagulation factor XI = Coagulation factor XI (Homo sapiens, UniProt P03951); assay: Inhibition of human FXIa using p-Glu-Pro-Arg-pNA.HCl as substrate incubated for 30 mins followed by substrate addition and measured after 60 mins by microplate reader analysis
Plasma [1] = assay: Anticoagulant activity in citrated human plasma assessed as prolongation of activated partial thromboplastin time at 1 uM incubated for 3 mins by aPTT reagent based automated coagulometric analysis relative to control; assay type: functional; details: 0.05 h
[2] = Metabolic stability in human liver microsome assessed as half life; assay type: ADME; details: liver microsomes
Plasma [3] = assay: Anticoagulant activity in citrated human plasma assessed as prolongation of activated partial thromboplastin time incubated for 3 mins by aPTT reagent based automated coagulometric analysis; assay type: functional
Coagulation factor XII = biological target: T1, Coagulation factor XII (Homo sapiens, UniProt P00748); assay: Inhibition of FXIIa (unknown origin) using H-D-ProPhe-Arg-pNA.2HCl as substrate incubated for 30 mins followed by substrate addition and measured after 60 mins by microplate reader analysis
T1 sequence (P00748 whole entry): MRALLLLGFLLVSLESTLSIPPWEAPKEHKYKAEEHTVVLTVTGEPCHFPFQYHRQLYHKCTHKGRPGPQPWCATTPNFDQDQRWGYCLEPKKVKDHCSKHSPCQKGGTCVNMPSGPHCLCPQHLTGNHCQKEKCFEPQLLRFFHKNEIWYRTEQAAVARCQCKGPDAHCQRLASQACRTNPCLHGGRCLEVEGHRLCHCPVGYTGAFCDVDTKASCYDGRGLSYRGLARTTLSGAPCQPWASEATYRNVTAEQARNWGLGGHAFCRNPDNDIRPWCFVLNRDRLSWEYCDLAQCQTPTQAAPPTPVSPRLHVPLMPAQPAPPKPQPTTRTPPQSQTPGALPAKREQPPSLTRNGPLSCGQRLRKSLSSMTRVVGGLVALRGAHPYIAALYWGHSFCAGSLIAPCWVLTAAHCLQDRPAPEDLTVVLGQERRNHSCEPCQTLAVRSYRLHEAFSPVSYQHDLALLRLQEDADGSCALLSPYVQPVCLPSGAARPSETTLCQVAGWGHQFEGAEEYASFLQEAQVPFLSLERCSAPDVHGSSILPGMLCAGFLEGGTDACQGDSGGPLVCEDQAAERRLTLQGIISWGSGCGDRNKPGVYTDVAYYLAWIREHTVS

Coagulation factor X = Coagulation factor X (Homo sapiens, UniProt P00742); assay: Inhibition of FXa (unknown origin) using Z-D-Arg-Gly-Arg-pNA.2HCl as substrate incubated for 30 mins followed by substrate addition and measured after 60 mins by microplate reader analysis
Sequence of Coagulation factor X (P00742 41-179 limits assumed): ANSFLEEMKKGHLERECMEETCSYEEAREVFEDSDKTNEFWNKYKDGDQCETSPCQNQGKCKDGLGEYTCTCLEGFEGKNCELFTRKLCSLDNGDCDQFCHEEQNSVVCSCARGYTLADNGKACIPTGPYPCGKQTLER
Sequence of Coagulation factor X (P00742 235-488 limits assumed): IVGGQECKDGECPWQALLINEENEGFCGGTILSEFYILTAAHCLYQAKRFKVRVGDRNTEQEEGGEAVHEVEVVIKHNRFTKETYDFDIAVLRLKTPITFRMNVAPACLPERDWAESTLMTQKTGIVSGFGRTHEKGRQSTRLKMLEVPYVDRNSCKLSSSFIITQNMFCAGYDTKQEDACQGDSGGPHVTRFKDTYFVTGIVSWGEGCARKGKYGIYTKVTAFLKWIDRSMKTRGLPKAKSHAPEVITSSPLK

[4] = biological target: Tissue-type plasminogen activator (Homo sapiens, UniProt P00750); assay: Inhibition of tPA (unknown origin) using H-D-Ile-Pro-Arg-pNA-2HCl as substrate incubated for 30 mins followed by substrate addition and measured after 60 mins by microplate reader analysis
Sequence of Tissue-type plasminogen activator (P00750 whole entry): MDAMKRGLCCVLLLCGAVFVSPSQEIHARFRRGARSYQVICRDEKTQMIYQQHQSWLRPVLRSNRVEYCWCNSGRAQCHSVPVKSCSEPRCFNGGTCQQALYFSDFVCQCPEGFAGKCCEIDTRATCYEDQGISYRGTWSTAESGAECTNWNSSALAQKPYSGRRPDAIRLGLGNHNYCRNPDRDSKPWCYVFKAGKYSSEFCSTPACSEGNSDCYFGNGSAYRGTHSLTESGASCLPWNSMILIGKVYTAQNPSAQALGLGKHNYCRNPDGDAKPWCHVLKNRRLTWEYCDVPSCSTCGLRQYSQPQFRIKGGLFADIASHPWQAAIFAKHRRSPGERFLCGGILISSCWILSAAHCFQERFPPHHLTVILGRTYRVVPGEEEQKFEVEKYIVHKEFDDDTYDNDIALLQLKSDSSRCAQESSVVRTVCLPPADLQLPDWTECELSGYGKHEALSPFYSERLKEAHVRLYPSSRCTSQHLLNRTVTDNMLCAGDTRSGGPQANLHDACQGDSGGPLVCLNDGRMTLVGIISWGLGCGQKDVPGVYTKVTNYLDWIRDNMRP

[5] = Cytotoxicity against human AC16 [Human hybrid] cells assessed as reduction in cell viability at 1 to 50 uM incubated for 24 hrs by MTT assay; assay type: toxicity, cell-based; details: dose 1-50 µM
HK-2 = assay: Cytotoxicity against human HK-2 cells assessed as reduction in cell viability at 1 to 50 uM incubated for 24 hrs by MTT assay; assay type: toxicity, cell-based; details: hk-2, 24 h, dose 1-50 µM
Mus musculus [6] = assay: Antithrombotic activity in po dosed FeCl3-induced carotid arterial thrombosis C57BL/6J mouse model assessed as increase in peak velocity measured after 0.5 hrs; assay type: functional, organism-based; details: dose 5-30 mg/kg
Mus musculus [7] = assay: Antithrombotic activity in FeCl3-induced carotid arterial thrombosis C57BL/6J mouse model assessed as increase in peak velocity at 10 mg/kg, po measured after 2 to 4 hrs; assay type: functional, organism-based; details: time 2-4 hrs
Mus musculus [8] = assay: Antithrombotic activity in FeCl3-induced carotid arterial thrombosis C57BL/6J mouse model assessed as increase in blood flow velocity at 10 mg/kg, po measured after 2 to 4 hrs; assay type: functional, organism-based; details: time 2-4 hrs
[9] = Toxicity in male New Zealand white rabbit assessed as prolongation of bleeding time at 2 to 6 mg/kg, iv by ear bleeding assay; assay type: organism-based, Oryctolagus cuniculus; details: in vivo, dose 2-6 mg/kg
[10] = Acute toxicity in C57BL/6J mouse assessed as weight loss at 60 to 100 mg/kg, po administered as single dose for 14 days; assay type: organism-based; details: in vivo, 336 h, dose 60-100 mg/kg, time 14 day
[11] = Acute toxicity in C57BL/6J mouse assessed as pathological changes in liver at 60 to 100 mg/kg, po administered as single dose for 14 days by H and E staining based analysis; assay type: organism-based; details: in vivo, 336 h, dose 60-100 mg/kg, time 14 day
[12] = Acute toxicity in C57BL/6J mouse assessed as pathological changes in kidney at 60 to 100 mg/kg, po administered as single dose for 14 days by H and E staining based analysis; assay type: organism-based; details: in vivo, 336 h, dose 60-100 mg/kg, time 14 day
[13] = Selectivity index, ratio of IC50 for inhibition of thrombin (unknown origin) using H-D-Phe-Pip-Arg-pNA.2HCl as substrate to IC50 for inhibition of human FXIa using p-Glu-Pro-Arg-pNA.HCl as substrate
[14] = Selectivity index, ratio of IC50 for inhibition of FXa (unknown origin) using Z-D-Arg-Gly-Arg-pNA.2HCl as substrate to IC50 for inhibition of human FXIa using p-Glu-Pro-Arg-pNA.HCl as substrate
[15] = Selectivity index, ratio of IC50 for inhibition of plasmin (unknown origin) using PyroGlu-Phe-Lys-pNA.HCl as substrate to IC50 for inhibition of human FXIa using p-Glu-Pro-Arg-pNA.HCl as substrate
[16] = Selectivity index, ratio of IC50 for inhibition of tPA (unknown origin) using H-D-Ile-Pro-Arg-pNA-2HCl as substrate to IC50 for inhibition of human FXIa using p-Glu-Pro-Arg-pNA.HCl as substrate
[17] = Acute toxicity in C57BL/6J mouse assessed as effect on heart weight at 60 to 100 mg/kg, po measured after 24 hrs; assay type: organism-based; details: in vivo, dose 60-100 mg/kg
[18] = Acute toxicity in C57BL/6J mouse assessed as effect on liver weight at 60 to 100 mg/kg, po measured after 24 hrs; assay type: organism-based; details: in vivo, dose 60-100 mg/kg
[19] = Acute toxicity in C57BL/6J mouse assessed as effect on lung weight at 60 to 100 mg/kg, po measured after 24 hrs; assay type: organism-based; details: in vivo, dose 60-100 mg/kg
[20] = Acute toxicity in C57BL/6J mouse assessed as effect on kidney weight at 60 to 100 mg/kg, po measured after 24 hrs; assay type: organism-based; details: in vivo, dose 60-100 mg/kg
[21] = Acute toxicity in C57BL/6J mouse assessed as effect on serum alanine transaminase level at 60 to 100 mg/kg, po measured after 24 hrs; assay type: organism-based; details: in vivo, dose 60-100 mg/kg
[22] = Acute toxicity in C57BL/6J mouse assessed as effect on plasma ALP level at 60 to 100 mg/kg, po measured after 24 hrs; assay type: organism-based; details: in vivo, dose 60-100 mg/kg
physchem = details: aqueous medium, pH 7.4
Description: Aqueous solubility of the compound in DMSO at pH 7.4 incubated for 12 hrs by turbidimetric based UV spectrophotometric analysis

Sequence of Coagulation factor XI (P03951 19-387 limits assumed): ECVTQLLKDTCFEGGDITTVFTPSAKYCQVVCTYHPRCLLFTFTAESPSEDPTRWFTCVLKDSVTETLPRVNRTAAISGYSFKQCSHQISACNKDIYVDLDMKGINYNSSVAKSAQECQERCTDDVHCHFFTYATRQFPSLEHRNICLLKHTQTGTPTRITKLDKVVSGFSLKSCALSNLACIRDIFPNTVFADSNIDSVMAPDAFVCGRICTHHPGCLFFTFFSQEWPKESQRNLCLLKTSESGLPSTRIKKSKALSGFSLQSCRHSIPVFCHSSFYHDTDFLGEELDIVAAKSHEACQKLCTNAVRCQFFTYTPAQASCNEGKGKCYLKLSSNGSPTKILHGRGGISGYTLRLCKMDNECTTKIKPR
Sequence of Coagulation factor XI (P03951 388-625 limits assumed): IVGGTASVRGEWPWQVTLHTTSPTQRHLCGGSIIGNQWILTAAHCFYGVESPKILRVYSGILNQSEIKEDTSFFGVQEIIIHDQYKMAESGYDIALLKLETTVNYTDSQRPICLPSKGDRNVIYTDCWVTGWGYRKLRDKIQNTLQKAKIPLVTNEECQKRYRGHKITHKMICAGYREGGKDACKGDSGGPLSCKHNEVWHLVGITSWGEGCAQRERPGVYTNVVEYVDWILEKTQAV

In the case of `COc1cn(Cc2cc(-c3ccc(N)nc3F)ccn2)c(=O)cc1-c1cc(Cl)ccc1-n1cnnn1`, the IC50 (Coagulation factor XI) is reported as 0.19 nM, the Activity (Plasma [1]) is reported as 247.3% and the half-life [2] is reported as > 3 h. The Activity (Plasma [3]) was “Dose-dependent-effect”, the EC1.5 (Plasma [3]; 0.05 h) was 0.43 µM and the IC50 (Coagulation factor XII) was > 1000 nM. The IC50 (Coagulation factor X) was > 1000 nM, the IC50 [4] was > 1000 nM and the Activity [5] was “Non-toxic”. For the same compound, the Activity (HK-2) was “Non-toxic”, the Activity (Mus musculus [6]) was “Dose-dependent-effect” and the Activity (Mus musculus [7]) was “Active; Pronounced Increase Observed Compared To Compound F”. The Activity (Mus musculus [8]) was “Active; Pronounced Increase Observed Compared To Compound F”, the Activity [9] was “Non-toxic” and the Activity [10] was “Non-toxic”. For the same compound, the Activity [11] was “Non-toxic”, the Activity [12] was “Non-toxic” and the Ratio IC50 [13] was > 1000. The Ratio IC50 [14] was > 1000, the Ratio IC50 [15] was > 1000 and the Ratio IC50 [16] was > 1000. For the same compound, the Activity [17] was “Non-toxic”, the Activity [18] was “Non-toxic” and the Activity [19] was “Non-toxic”. For the same compound, the Activity [20] was “Non-toxic”, the Activity [21] was “Non-toxic” and the Activity [22] was “Non-toxic”. It also gave a solubility kinetic at 12 h (physchem) of 122 µg/mL (≈ 242 µM).
